Measurements reported in ChEMBL document CHEMBL1147509, “Pharmacology of the agonist binding sites of rat neuronal nicotinic receptor subtypes expressed in HEK 293 cells” (Bioorg Med Chem Lett, 2004).

Experiments:
[1] = target: Neuronal acetylcholine receptor; alpha3/beta4 (Rattus norvegicus, UniProt P04757+P12392); assay: Binding affinity towards rat Nicotinic acetylcholine receptor alpha3-beta4 expressed in HEK293 cells using [3H]EB as radioligand; format: cell-based
[2] = target: Neuronal acetylcholine receptor; alpha4/beta4 (Rattus norvegicus, UniProt P09483+P12392); assay: Binding affinity towards rat Nicotinic acetylcholine receptor alpha4-beta4 expressed in HEK293 cells using [3H]EB as radioligand; format: cell-based
[3] = target: Neuronal acetylcholine receptor; alpha4/beta2 (Rattus norvegicus, UniProt P09483+P12390); assay: Binding affinity towards rat Nicotinic acetylcholine receptor alpha4-beta2 expressed in HEK293 cells using [3H]EB as radioligand; format: cell-based
[4] = Ratio between the binding affinities towards rat alpha3-beta4 and forebrain nACh receptor using [3H]EB as radioligand
[5] = Ratio between the binding affinities towards rat alpha3-beta4 and alpha3-beta2 nACh receptor using [3H]EB as radioligand
[6] = Binding affinity towards rat alpha2-beta4 nACh receptor expressed in HEK293 cells using [3H]EB as radioligand; format: cell-based
[7] = Ratio between the binding affinities towards rat alpha2-beta4 and alpha2-beta2 nACh receptor using [3H]-EB as radioligand
[8] = Ratio between the binding affinities towards rat alpha4-beta4 and alpha4-beta2 nACh receptor using [3H]EB as radioligand
[9] = target: Neuronal acetylcholine receptor; alpha3/beta2 (Rattus norvegicus, UniProt P04757+P12390); assay: Binding affinity towards rat Nicotinic acetylcholine receptor alpha3-beta2 expressed in HEK293 cells using [3H]EB as radioligand; format: cell-based
[10] = target: Neuronal acetylcholine receptor; alpha2/beta2 (Rattus norvegicus, UniProt P12389+P12390); assay: Binding affinity towards rat nicotinic acetylcholine receptor alpha2-beta2 expressed in HEK293 cells using [3H]EB as radioligand; format: cell-based
[11] = target: Neuronal acetylcholine receptor; assay: Binding affinity towards rat forebrain nicotinic acetylcholine receptor using [3H]EB as radioligand

Sequence of Neuronal acetylcholine receptor; alpha4/beta4 (P09483 whole entry): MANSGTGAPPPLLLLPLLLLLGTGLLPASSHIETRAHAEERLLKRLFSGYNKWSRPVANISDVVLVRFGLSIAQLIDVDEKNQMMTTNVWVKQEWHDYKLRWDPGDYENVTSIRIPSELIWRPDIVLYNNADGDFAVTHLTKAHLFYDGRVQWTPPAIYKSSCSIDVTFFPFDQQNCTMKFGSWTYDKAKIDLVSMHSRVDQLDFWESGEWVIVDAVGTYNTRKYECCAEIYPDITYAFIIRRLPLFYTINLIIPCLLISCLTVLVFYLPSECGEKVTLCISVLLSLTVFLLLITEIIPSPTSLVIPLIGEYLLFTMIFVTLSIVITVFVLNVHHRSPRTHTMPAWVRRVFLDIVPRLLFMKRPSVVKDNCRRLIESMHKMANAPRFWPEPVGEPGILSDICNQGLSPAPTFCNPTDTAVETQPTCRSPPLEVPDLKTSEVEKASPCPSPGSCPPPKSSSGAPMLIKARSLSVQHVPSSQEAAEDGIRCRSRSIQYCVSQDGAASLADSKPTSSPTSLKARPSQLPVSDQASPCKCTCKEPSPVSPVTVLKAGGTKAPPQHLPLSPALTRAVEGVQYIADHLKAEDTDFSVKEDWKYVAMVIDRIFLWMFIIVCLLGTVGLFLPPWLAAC
Sequence of Neuronal acetylcholine receptor; alpha4/beta4 (P12392 whole entry): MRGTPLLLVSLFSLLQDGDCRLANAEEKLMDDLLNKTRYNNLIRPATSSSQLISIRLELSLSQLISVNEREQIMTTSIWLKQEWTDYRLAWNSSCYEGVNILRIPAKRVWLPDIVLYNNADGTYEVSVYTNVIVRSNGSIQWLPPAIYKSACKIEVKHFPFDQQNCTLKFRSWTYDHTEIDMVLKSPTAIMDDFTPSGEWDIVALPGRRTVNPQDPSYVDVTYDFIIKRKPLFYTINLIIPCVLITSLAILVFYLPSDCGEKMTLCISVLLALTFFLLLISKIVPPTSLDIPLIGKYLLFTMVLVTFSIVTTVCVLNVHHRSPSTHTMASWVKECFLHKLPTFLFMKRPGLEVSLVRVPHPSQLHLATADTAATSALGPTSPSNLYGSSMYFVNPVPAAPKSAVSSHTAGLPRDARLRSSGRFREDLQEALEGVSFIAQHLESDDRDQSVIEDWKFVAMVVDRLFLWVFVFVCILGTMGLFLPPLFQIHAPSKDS
Sequence of Neuronal acetylcholine receptor; alpha4/beta2 (P09483 whole entry): as the sequence (P09483 whole entry) above
Sequence of Neuronal acetylcholine receptor; alpha4/beta2 (P12390 whole entry): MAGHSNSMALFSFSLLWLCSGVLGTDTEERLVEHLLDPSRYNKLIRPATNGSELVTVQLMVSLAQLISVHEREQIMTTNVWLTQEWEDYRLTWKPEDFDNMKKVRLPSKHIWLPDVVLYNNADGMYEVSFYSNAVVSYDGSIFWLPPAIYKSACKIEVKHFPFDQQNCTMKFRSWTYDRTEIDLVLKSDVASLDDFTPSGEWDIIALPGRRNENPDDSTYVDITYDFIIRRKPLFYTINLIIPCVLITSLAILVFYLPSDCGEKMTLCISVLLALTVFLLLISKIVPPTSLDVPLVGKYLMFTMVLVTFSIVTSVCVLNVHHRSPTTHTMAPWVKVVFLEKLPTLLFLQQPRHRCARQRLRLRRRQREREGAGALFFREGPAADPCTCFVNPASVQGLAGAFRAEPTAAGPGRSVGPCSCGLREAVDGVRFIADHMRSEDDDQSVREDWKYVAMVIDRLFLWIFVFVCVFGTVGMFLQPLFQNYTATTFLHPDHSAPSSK
Sequence of Neuronal acetylcholine receptor; alpha2/beta2 (P12389 whole entry): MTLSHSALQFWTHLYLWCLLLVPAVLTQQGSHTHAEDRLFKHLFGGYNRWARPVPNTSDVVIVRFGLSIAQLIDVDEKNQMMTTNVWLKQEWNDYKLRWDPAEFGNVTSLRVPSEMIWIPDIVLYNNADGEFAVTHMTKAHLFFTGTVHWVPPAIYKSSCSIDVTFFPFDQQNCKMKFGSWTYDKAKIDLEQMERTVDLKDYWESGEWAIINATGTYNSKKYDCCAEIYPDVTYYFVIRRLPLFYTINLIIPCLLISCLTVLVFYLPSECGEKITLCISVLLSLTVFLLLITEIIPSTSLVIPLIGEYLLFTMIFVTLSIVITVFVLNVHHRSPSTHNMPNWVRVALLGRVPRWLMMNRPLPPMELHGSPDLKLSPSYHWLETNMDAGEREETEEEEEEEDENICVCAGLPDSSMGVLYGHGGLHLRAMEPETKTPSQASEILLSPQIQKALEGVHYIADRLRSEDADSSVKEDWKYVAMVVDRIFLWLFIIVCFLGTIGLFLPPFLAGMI
Sequence of Neuronal acetylcholine receptor; alpha2/beta2 (P12390 whole entry): as the sequence (P12390 whole entry) above
Sequence of Neuronal acetylcholine receptor; alpha3/beta2 (P04757 whole entry): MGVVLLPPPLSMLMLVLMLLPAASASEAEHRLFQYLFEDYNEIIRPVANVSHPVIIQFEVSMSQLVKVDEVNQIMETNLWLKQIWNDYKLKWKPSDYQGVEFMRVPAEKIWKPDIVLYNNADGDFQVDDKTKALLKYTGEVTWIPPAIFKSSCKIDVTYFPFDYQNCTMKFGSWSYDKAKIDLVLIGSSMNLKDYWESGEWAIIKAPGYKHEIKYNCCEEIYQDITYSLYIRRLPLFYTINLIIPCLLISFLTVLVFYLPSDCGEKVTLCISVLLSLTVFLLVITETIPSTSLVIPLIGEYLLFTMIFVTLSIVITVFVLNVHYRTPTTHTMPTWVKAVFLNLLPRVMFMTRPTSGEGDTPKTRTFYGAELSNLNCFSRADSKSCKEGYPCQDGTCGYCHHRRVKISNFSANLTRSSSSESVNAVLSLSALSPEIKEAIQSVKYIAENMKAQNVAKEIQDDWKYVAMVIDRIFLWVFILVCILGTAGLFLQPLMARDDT
Sequence of Neuronal acetylcholine receptor; alpha3/beta2 (P12390 whole entry): as the sequence (P12390 whole entry) above
Sequence of Neuronal acetylcholine receptor; alpha3/beta4 (P04757 whole entry): as the sequence (P04757 whole entry) above
Sequence of Neuronal acetylcholine receptor; alpha3/beta4 (P12392 whole entry): as the sequence (P12392 whole entry) above

Ic1cncc(O[C@H]2CCN2)c1
Ki [1]: 290 nM | Ki [2]: 24 nM | Ki [3]: 0.062 nM | Ratio [4]: 2070 | Ratio [5]: 690 | Ki [6]: 47 nM | Ratio [7]: 1520 | Ratio [8]: 387 | Ki [9]: 0.42 nM | Ki [10]: 0.031 nM | Ki [11]: 0.14 nM

c1cncc(OC[C@@H]2CCN2)c1
Ki [1]: 72 nM | Ki [2]: 7.1 nM | Ki [3]: 0.14 nM | Ki [6]: 17 nM | Ki [9]: 0.24 nM | Ki [10]: 0.074 nM

Clc1ccc(C2CC3CCC2N3)cn1 (racemic; form 1) [EPIBATIDINE]
Ki [6]: 0.087 nM

Clc1ccc(C2CC3CCC2N3)cn1 (racemic; form 2) [EPIBATIDINE]
Ki [6]: 0.13 nM

CC(=O)OCC[N+](C)(C)C [ACETYLCHOLINE]
Ki [6]: 180 nM | Ki [10]: 11 nM

C[N+](C)(C)CCOC(N)=O [CARBACHOL]
Ki [1]: 4800 nM | Ki [2]: 1300 nM | Ki [3]: 590 nM | Ki [6]: 640 nM | Ki [9]: 1100 nM | Ki [10]: 210 nM

C[N+](C)(C)CCO [CHOLINE]
Ki [1]: 48000 nM | Ki [2]: 34000 nM | Ki [3]: 37000 nM | Ratio [4]: 1 | Ratio [5]: 1 | Ki [6]: 21000 nM | Ratio [7]: 1 | Ratio [8]: 1 | Ki [9]: 37000 nM | Ki [10]: 18000 nM | Ki [11]: 42000 nM

O=c1cccc2n1C[C@@H]1CNC[C@H]2C1 [CYTISINICLINE]
Ki [2]: 2.2 nM | Ki [3]: 1.5 nM | Ratio [4]: 84 | Ratio [5]: 6 | Ki [6]: 5.5 nM | Ratio [7]: 4 | Ratio [8]: 1 | Ki [9]: 37 nM | Ki [10]: 1.4 nM | Ki [11]: 2.5 nM

C[N+]1(C)CCN(c2ccccc2)CC1 [DIMETHYLPHENYLPIPERAZINIUM IODIDE]
Ki [1]: 800 nM | Ki [6]: 1300 nM | Ki [9]: 42 nM | Ki [10]: 28 nM

CN1CCC[C@H]1c1cccnc1 [NICOTINE]
Ki [6]: 130 nM
